Columns and labels:
[1] = biological target: T1, human SXR ligand binding domain (Homo sapiens, UniProt O75469); assay: Gal-L-SXR (Gal-SXR) Gal4 reporter transient transfection assay in CV-1 cells
T1 sequence (O75469 107-434 limits assumed): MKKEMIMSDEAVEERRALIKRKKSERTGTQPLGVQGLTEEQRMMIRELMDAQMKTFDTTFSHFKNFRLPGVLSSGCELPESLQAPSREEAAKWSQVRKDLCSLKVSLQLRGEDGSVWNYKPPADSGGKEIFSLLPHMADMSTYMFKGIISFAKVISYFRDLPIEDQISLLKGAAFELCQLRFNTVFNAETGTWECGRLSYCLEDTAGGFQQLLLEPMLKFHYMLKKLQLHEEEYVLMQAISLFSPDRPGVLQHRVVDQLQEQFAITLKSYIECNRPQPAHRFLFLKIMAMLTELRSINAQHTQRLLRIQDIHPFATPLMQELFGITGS
Source text: Use of a standard model heterologous cell system to reconstitute SXR agonist and antagonist responsiveness allows SXR activity to be monitored in the absence of the metabolic events which may obscure the process being tested. Any suitable heterologous cell system may be used to test the activation of potential or known SXR nuclear receptor ligands, as long as the cells are capable of being transiently transfected with the appropriate DNA which expresses receptors, reporter genes, response elements, and the like. Cells which constitutively express one or more of the necessary genes may be used as well. Cell systems that are suitable for the transient expression of mammalian genes and which are amenable to maintenance in culture are well known to those skilled in the art. […] Suitable reporter gene constructs are well known to skilled workers in the fields of biochemistry and molecular biology. Activity of the reporter gene can be conveniently normalized to the internal control and the data plotted as fold activation relative to untreated cells.
The Gal4 reporter activity was normalized to the internal β-galactosidase control and the data plotted as fold activation relative to untreated cells. All transfections contained the Gal4 reporter and a β-galactosidase expression vector as an internal control.
Izbicka et al., Ann. Oncol.
Gal-PXR containing the ligand binding domain of mouse PXR (#AF031814) was obtained from Bruce Blumberg.
Transient Transffection Assays—CV-1 cells were grown and transfected as described.

human RARα = biological target: T2, human RARα (Homo sapiens, UniProt P10276); assay: Nuclear receptor specificity transfection assay; assay type: cell-based; conditions: 10 μM paclitaxel
T2 construct: expressed in transfected cells; host or cells: CV-1
T2 sequence (P10276 whole entry): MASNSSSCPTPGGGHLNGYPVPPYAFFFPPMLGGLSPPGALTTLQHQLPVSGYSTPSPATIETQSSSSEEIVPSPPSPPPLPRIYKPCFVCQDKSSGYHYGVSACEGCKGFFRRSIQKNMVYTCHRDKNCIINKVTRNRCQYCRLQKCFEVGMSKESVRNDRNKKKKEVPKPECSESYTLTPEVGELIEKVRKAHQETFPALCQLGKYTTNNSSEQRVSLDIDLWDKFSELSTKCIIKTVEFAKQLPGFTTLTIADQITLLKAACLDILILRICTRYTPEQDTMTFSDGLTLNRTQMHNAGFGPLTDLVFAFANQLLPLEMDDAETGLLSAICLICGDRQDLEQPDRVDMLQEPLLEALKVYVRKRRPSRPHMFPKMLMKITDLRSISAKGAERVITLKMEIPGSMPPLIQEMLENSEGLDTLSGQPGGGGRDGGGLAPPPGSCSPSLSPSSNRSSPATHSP

mouse PPARα = biological target: T3, mouse PPARα (Mus musculus, UniProt P23204); assay: Nuclear receptor specificity transfection assay; assay type: cell-based; conditions: 10 μM paclitaxel
T3 construct: expressed in transfected cells; host or cells: CV-1
T3 sequence (P23204 1-468): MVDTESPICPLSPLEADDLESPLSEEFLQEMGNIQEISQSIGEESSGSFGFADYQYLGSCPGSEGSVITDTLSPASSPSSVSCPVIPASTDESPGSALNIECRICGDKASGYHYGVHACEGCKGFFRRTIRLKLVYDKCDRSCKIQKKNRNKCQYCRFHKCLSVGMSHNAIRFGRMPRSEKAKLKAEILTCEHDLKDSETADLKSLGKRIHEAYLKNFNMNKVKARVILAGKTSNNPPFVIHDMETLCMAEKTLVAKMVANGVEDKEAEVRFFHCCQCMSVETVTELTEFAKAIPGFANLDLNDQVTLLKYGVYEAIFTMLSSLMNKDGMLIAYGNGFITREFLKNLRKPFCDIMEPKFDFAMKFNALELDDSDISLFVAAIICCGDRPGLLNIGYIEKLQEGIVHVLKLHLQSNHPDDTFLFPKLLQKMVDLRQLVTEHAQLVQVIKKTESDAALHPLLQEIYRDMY

mouse PPARγ = biological target: T4, mouse PPARγ (Mus musculus, UniProt P37238); assay: Nuclear receptor specificity transfection assay; assay type: cell-based; conditions: 10 μM paclitaxel
T4 construct: expressed in transfected cells; host or cells: CV-1
T4 sequence (P37238 whole entry): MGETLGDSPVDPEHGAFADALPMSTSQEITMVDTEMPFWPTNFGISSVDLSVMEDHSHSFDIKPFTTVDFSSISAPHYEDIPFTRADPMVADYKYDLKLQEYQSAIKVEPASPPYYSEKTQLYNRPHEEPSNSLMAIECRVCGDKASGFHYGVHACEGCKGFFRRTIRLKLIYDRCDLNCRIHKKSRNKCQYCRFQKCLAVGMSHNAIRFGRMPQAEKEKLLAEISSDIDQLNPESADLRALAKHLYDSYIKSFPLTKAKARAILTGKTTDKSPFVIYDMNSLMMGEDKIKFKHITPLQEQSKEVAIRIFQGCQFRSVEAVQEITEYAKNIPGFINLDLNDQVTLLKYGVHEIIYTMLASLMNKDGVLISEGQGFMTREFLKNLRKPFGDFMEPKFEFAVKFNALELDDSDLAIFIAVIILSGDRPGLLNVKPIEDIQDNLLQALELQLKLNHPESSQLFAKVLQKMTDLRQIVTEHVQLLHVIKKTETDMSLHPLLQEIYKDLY

mouse PPARδ = biological target: T5, mouse PPARδ (Mus musculus, UniProt P35396); assay: Nuclear receptor specificity transfection assay; assay type: cell-based; conditions: 10 μM paclitaxel
T5 construct: expressed in transfected cells; host or cells: CV-1
T5 sequence (P35396 1-440): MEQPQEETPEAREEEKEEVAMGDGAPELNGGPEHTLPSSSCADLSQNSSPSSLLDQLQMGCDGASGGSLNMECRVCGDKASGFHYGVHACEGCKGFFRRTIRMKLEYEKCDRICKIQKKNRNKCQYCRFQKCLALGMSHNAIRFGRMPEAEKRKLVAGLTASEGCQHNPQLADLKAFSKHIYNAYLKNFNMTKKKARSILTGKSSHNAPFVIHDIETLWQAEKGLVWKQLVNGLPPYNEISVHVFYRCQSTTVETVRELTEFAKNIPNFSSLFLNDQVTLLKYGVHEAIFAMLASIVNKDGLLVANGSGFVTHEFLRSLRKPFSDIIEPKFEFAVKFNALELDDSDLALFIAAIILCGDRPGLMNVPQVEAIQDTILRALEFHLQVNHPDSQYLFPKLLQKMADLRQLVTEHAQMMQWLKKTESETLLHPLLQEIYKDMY

FXR = biological target: T6, FXR (Homo sapiens, UniProt Q96RI1); assay: Nuclear receptor specificity transfection assay; assay type: cell-based; conditions: 10 μM paclitaxel
T6 construct: expressed in transfected cells; host or cells: CV-1
T6 sequence (Q96RI1 whole entry, species assumed): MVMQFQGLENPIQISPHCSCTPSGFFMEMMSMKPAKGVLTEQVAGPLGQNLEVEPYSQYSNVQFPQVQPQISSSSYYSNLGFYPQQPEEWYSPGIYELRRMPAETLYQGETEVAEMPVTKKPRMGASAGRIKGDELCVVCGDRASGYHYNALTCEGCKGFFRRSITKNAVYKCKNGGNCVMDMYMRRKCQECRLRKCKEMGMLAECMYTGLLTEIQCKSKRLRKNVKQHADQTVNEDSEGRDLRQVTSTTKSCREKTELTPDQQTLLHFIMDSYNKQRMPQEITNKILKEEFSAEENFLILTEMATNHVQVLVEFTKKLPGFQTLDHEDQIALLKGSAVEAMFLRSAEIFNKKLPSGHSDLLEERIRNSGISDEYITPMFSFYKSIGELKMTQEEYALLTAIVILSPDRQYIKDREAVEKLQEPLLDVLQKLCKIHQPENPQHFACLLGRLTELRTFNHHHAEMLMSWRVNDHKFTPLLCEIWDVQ

[2] = system: MDR1 protein (P-glycoprotein); assay: Western analysis with P-glycoprotein antibody of LS180 cells; assay type: cell-based, human; conditions: 10 μM, 48 hours
Description: Western Blotting was performed according to the following methods. Human LS180 cells in log phase growth were treated for 48 hours with the compounds indicated in the pertinent Figures. The cells were harvested, washed with phosphate buffered saline (PBS) and homogenized using 12-15 strokes of a Wheaton teflon-glass homogenizer. Cell debris was removed by centrifugation at 1500×g for 10 minutes, and the resulting supernatant was sedimented at 150,000×g for one hour at 4° C. to pellet the membranes. The membrane pellets were resuspended in PBS containing 1 mM phenylmethylsulfonyl fluoride and protein concentrations were determined according to standard prior art methods. […] The membranes were blocked with 5% non-fat dry milk in PBS with 0.1% Tween-20 (PBS-T) before incubation with a 1:500 dilution of P-glycoprotein antibody (Ab-1, Oncogene Research Products, Boston, Mass.) in blocking buffer for six hours at room temperature. Following several washes with PBS-T, membranes were incubated with a 1:1000 dilution of horseradish peroxidase-conjugated secondary anti-rabbit IgG antibodies. (Santa Cruz Biotechnology, Santa Cruz, Calif.) in blocking buffer for one hour at room temperature.

[3] = system: LS180 human colon cancer cells; assay: [14C]-paclitaxel efflux from pretreated LS180 cells; assay type: cell-based; conditions: LS180 cells induced 48 hours with 10 μM paclitaxel, 10 μM docetaxel or 100 nM LG268
Description: Taxane-induced drug efflux was measured using pretreated LS180 human colon cancer cells. The rate of drug efflux was measured. […] Individual data points are the means of triplicate determinations, error bars represent standard deviation and the lines are lines of regression. The slope of each line (rate of efflux) was compared to the slope obtained in the control (untreated) cells using an analysis of covariance. […] The entire experiment was performed three times with similar results. […] The cells were then incubated in media supplemented with 10 μM [^14C]-paclitaxel (4.9 μCi/umol, Moravek Biochemicals, Brea, Calif.) for 15 minutes. The uptake of ^14C-paclitaxel reached maximum levels at 10-12 minutes (data not shown). After 15 minutes, the cells were then rapidly centrifuged through silicone oil to remove all traces of extracellular radioactivity, resuspended in fresh media, and cell counts determined. At multiple time points over the next 10 minutes, triplicate aliquots of the cell suspension (approx. 1×10^5 cells/aliquot) were again centrifuged through silicon oil and the radioactivity in the cell pellet measured by quench-corrected liquid scintillation counting. The rate of [^14C]-paclitaxel efflux was determined as the slope of the [^14C]-paclitaxel versus time plots using all data. The slope for each inducer was compared to the slope obtained in the control (untreated) cells using an analysis of covariance.

P-glycoprotein = P-glycoprotein (Mus musculus, UniProt P21447); conditions: orally administered; cited from earlier work
Sequence of P-glycoprotein (P21447 whole entry): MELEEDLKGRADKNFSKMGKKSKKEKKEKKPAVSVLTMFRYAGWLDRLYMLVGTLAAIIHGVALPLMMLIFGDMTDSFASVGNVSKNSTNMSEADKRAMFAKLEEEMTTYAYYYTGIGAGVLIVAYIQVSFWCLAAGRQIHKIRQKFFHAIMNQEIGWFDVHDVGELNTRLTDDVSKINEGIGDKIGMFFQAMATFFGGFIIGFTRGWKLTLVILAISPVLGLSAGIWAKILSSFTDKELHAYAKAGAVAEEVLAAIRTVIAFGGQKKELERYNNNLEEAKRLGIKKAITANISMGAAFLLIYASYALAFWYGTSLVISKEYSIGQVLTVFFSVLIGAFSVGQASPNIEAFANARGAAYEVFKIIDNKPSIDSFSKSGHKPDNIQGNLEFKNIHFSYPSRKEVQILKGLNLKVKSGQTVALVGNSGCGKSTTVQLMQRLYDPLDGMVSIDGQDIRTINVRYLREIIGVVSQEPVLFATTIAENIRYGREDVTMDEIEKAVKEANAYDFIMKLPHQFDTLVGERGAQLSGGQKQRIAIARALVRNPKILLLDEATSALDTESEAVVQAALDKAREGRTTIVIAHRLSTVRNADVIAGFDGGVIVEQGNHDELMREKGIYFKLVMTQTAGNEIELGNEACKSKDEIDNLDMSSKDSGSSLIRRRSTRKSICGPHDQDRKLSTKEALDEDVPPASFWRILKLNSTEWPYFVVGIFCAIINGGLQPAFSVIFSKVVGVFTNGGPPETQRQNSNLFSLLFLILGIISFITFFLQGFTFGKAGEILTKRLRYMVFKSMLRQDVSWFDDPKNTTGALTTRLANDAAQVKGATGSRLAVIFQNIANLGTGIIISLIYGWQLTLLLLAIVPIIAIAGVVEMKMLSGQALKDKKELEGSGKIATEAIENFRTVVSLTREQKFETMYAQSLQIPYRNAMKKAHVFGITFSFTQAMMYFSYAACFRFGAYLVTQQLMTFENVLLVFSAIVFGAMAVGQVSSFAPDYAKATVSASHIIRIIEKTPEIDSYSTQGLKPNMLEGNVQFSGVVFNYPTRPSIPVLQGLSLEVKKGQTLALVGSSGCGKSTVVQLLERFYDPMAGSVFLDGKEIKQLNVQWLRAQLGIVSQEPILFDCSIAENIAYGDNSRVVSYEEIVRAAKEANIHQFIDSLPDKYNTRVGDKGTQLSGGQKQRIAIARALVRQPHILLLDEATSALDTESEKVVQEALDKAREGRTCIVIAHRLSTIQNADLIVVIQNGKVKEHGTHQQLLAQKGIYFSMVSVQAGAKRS

CYP3A4 and CYP2C8 = conditions: read-out: Km for degradation of paclitaxel by CYP3A4 and CYP2C8; cited from earlier work
CV-1 cells = assay: Potential cytotoxic effects at the concentrations and treatment times used; conditions: at the indicated concentrations and treatment times

CC(=O)O[C@H]1C(=O)[C@@]2(C)[C@H]([C@H](OC(=O)c3ccccc3)[C@]3(O)C[C@H](OC(=O)[C@H](O)[C@@H](NC(=O)c4ccccc4)c4ccccc4)C(C)=C1C3(C)C)[C@]1(OC(C)=O)CO[C@@H]1C[C@@H]2O [paclitaxel]
EC50 [1]: ~5 µM | effect on RARα reporter activity (human RARα): no effect | effect on PPARα reporter activity (mouse PPARα): no effect | effect on PPARγ reporter activity (mouse PPARγ): no effect | effect on PPARδ reporter activity (mouse PPARδ): no effect | effect on FXR reporter activity (FXR): no effect | induction of MDR1 protein (P-glycoprotein) expression [2]: much more effective than docetaxel | rate of [14C]-paclitaxel efflux versus untreated cells [3]: significantly faster | fecal excretion for which P-glycoprotein is responsible (P-glycoprotein): 85% | Km (CYP3A4 and CYP2C8): ~10 µM | potential cytotoxic effects (CV-1 cells): minimal
